Measurements from patent US8008329B2 (Dong Wha Pharmaceutical Co., Ltd., priority 2008, dated 2011).
Several values for one entry are separate records, joined by “and”; a condition that tells them apart may be missing. Identical values can stand only once. Marks after values point to notes of the source that are not given here.

Legend:
[1] = test system: osteoclast differentiation; assay: Osteoclast differentiation in co-culture of mouse bone marrow cells and ST2 cells, TRAP staining (Examples 8-9); type: cell-based; conditions: for % number of osteoclast (vs. solvent control group): day 7; for activity at 0.1 µM: Mus musculus, Osteoclast, 168 h, day 7, read-out: % number of osteoclast (vs. solvent control group)
Procedure, shortened: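 Readout was TRAP-positive multinucleated (≥6 nuclei) cells on day 7, reported as % of 0.1% DMSO control, mean±SD of 4 wells. Cells were mouse (male ddY) bone marrow plus ST2 co-cultures driven by 10^−8 M vitamin D3/dexamethasone. Benzamidines, alendronic acid or risedronic acid were added at 0.1 μM alone or combined, with media renewed days 3 and 5.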

[2] = test system: osteoclast differentiation; assay: Osteoclast differentiation in co-culture of mouse bone marrow cells and calvarial osteoblasts, TRAP staining (Examples 1-7); type: cell-based; conditions: day 7
[3] = Combination treatment (alendronic acid + compounds), 0.1 μM each
[4] = Combination treatment (risedronic acid + compounds), 0.1 μM each
[5] = Individual treatment (compounds), 0.1 μM
[6] = Mus musculus, Osteoclast, 168 h, individual treatment of Compound (0.1 μM), read-out: % number of osteoclast (vs. solvent control group)
[7] = combination treatment of alendronic acid (0.2 μM) with compound (0.1 μM)
[8] = combination treatment of clodronic acid (1 μM) with compound (0.1 μM)
[9] = combination treatment of etidronic acid (2 μM) with compound (0.1 μM)
[10] = combination treatment of ibandronic acid (0.1 μM) with compound (0.1 μM)
[11] = combination treatment of pamidronic acid (0.1 μM) with compound (0.1 μM)
[12] = combination treatment of risedronic acid (0.1 μM) with compound (0.1 μM)
[13] = combination treatment of zoledronic acid (0.01 μM) with compound (0.1 μM)
[14] = individual treatment of Compound (0.1 μM)
[15] = singly treated with 0.1 μM alendronic acid
[16] = singly treated with 0.1 μM risedronic acid

Compound: CCCN(CCC)c1nc(-c2ccc(OCCCCCOc3ccc(C(=N)NO)cc3)cc2)c(CC)s1 [Compound 138, N-hydroxy-4-{5-[4-(2-dipropylamino-5-ethyl-1,3-thiazol-4-yl)phenoxy]pentyloxy}-benzamidine]
- % number of osteoclast (vs. solvent control group) [1, 3]: 18 ± 6.8^ab %
- % number of osteoclast (vs. solvent control group) [1, 4]: 31 ± 3.2^ac %
- activity at 0.1 µM [1, 5]: 57 ± 7.2%
- activity at 0.1 µM [2, 6]: 71%
- % number of osteoclast (vs. solvent control group) [2, 7]: 32% and 32 ± 8.9*^#@ %
- % number of osteoclast (vs. solvent control group) [2, 8]: 54 ± 11.9*^#@ %
- % number of osteoclast (vs. solvent control group) [2, 9]: 40% and 40 ± 8.4*^#@ %
- % number of osteoclast (vs. solvent control group) [2, 10]: 45 ± 7.6*^#@ %
- % number of osteoclast (vs. solvent control group) [2, 11]: 42% and 42 ± 6.2*^#@ %
- % number of osteoclast (vs. solvent control group) [2, 12]: 35% and 35 ± 8.2*^#@ %
- % number of osteoclast (vs. solvent control group) [2, 13]: 48 ± 8.9*^#@ %
- % number of osteoclast (vs. solvent control group) [2, 14]: 71 ± 6.5 %

Compound: NCCCC(O)(P(=O)(O)O)P(=O)(O)O [alendronic acid, reference compound]
- activity at 0.1 µM [1, 15]: 76%
- % number of osteoclast (vs. solvent control group) [1, 15]: 76 ± 6.2 %
- activity at 0.2 µM ([2]; Mus musculus, Osteoclast, 168 h, individual treatment of alendronic acid (0.2 μM), read-out: % number of osteoclast (vs. solvent control group)): 80%
- % number of osteoclast (vs. solvent control group) ([2]; individual treatment of alendronic acid (0.2 μM)): 80 ± 5.7 %

Compound: CN(CCN1CCOCC1)c1nc(-c2ccc(OCCCCCOc3ccc(C(=N)NO)cc3)cc2)cs1 [Compound 119, N-hydroxy-4-[5-(4-{2-[methyl-(2-morpholinoethyl)amino]-1,3-thiazol-4-yl}phenoxy)pentyloxy]-benzamidine]
- % number of osteoclast (vs. solvent control group) [1, 3]: 29 ± 4.9^ab %
- % number of osteoclast (vs. solvent control group) [1, 4]: 29 ± 8.7^ac %
- activity at 0.1 µM [1, 5]: 78 ± 9%
- activity at 0.1 µM [2, 6]: 66%
- % number of osteoclast (vs. solvent control group) [2, 7]: 29% and 29 ± 5.3*^#@ %
- % number of osteoclast (vs. solvent control group) [2, 8]: 47% and 47 ± 13.0*^#@ %
- % number of osteoclast (vs. solvent control group) [2, 9]: 38% and 38 ± 8.2*^#@ %
- % number of osteoclast (vs. solvent control group) [2, 10]: 36 ± 9.8*^#@ %
- % number of osteoclast (vs. solvent control group) [2, 11]: 37% and 37 ± 5.0*^#@ %
- % number of osteoclast (vs. solvent control group) [2, 12]: 38% and 38 ± 6.8*^#@ %
- % number of osteoclast (vs. solvent control group) [2, 13]: 42 ± 8.1*^#@ %
- % number of osteoclast (vs. solvent control group) [2, 14]: 66 ± 8.3 %

Compound: O=P(O)(O)C(O)(Cc1cccnc1)P(=O)(O)O [risedronic acid, reference compound]
- activity at 0.1 µM [1, 16]: 69%
- % number of osteoclast (vs. solvent control group) [1, 16]: 69 ± 6.7 %
- activity at 0.1 µM ([2]; Mus musculus, Osteoclast, 168 h, individual treatment of risedronic acid (0.1 μM), read-out: % number of osteoclast (vs. solvent control group)): ~82%
- % number of osteoclast (vs. solvent control group) ([2]; individual treatment of risedronic acid (0.1 μM)): 82 ± 5.2 %
